The subject of assay [1] is carrageenan paw edema (acute inflammatory response). The assay is described as follows: Rat carrageenan paw edema assay. The format is in vivo, rat (male Sprague-Dawley). To be noted: for ED50: Rattus norvegicus, po, read-out: Oral ED50 (95% C.L.) mg/kg; for % Inhibition at 100 mg/kg (peroral): 1 hour prior to carrageenan, edema at 3 hours. Here is the method:
The compounds of the invention are further tested in the rat carrageenan paw edema assay to determine their ability to inhibit the acute inflammatory response. This assay is carried out as follows: 140-180 gm male Sprague-Dawley rats, in groups of 6 animals are injected subcutaneously in the right paw with 0.1 ml of 1% carrageenan at zero time. Mercury plethysmographic readings (ml) of the paw are made at zero time and 3 hours later. Test compounds are suspended or dissolved in 0.5% methylcellulose and given perorally 1 hour prior to carrageenan administration. The increase in paw volume (edema in ml.) produced by the carrageenan is measured. […] Unpaired Student's t-test is used to determine statistical significance.
On the technique in general: The carrageenan paw model is a standard test of acute inflammation.

The subject of assay [2] is ovalbumin induced bronchospasm mediated by endogenous products of lipoxygenase oxidation of arachidonic acid. The assay is described as follows: Inhibition of ovalbumin induced bronchospasm in guinea pigs by endogenous mediators of bronchoconstriction. The format is in vivo, guinea pig (male Hartley). To be noted: 10 minutes before ovalbumin challenge; for ED50: Cavia porcellus. Here is the method:
The assay of this Example measures the in vivo ability of the compounds of the invention to inhibit the bronchospasm induced in guinea pigs by endogenous mediators of the bronchoconstriction.
(§1) The assay is carried out as follows:
Male Hartley strain guinea pigs weighing 250-350 g are sensitized to chicken ovalbumin (OA) (10 mg i.p.) on days 1 and 3 and used starting on day 26. The animals are anesthetized with pentobarbital sodium (50 mg/kg, i.p.), bilateral vagotomy is performed, and the jugular vein is cannulated for injection of drugs and the carotid artery for monitoring blood pressure. The trachea is cannulated for artificial ventilation by miniature Starling pump and for indirect measurement of respiratory volume changes. Succinylcholine (2 mg/kg, i.v.) is administered to arrest spontaneous respiration. A cyclooxygenase inhibitor, indomethacin (10 mg/kg in tris buffer, i.v. at 9 min.) is administered to shunt arachidonic metabolism to lipoxygenase pathways. One minute later, chlorpheniramine (1.0 mg/kg in saline, i.v.) is given to attenuate the histaminic component of anaphylactic bronchoconstriction. Test drugs (dissolved in propylene glycol, polyethylene glycol or saline) are administered either intraduodenally, perorally or by aerosol at 2 or 10 minutes before antigen challenge. Anaphylactic bronchoconstriction is induced by administration by breaths of aerosolized OA (1%) or by intravenous administration of 0.1-0.3 mg/kg OA in saline. Control animals receive solvent (2 ml/kg i.d. or appropriate aerosol) in place of drug.
Respiratory volume changes are determined by a calibrated piston whose travel is recorded, via a linear transducer, on a Beckman Dynograph recorder. Maximal bronchoconstrictor volume is determined by clamping off the trachea at the end of the experiment. Overflow volumes at minutes 1, 3 and 5 are obtained from the recorded charts.
Area under the volume overflow curve (AUC) is estimated, using the overflow values at 1, 3 and 5 minutes, and expressed as a percentage of the maximal overflow AUC (equation 1): [formula] Drug effects are reported as percent inhibition of % max AUC values obtained from appropriate control animals (equation 2): [formula] Student's t-test for unpaired data is used to determine statistical significance. Dose response curves are generated and ED50 doses are interpolated from the regression lines.

Assay [3] concerns LTD4 induced bronchoconstriction. The assay is described as follows: Inhibition of bronchospasm induced in guinea pigs by exogenously administered leukotrienes C4 and/or D4. The settings on record: 10 minutes before induction of bronchospasm; for ED50: Cavia porcellus, read-out: IC50 (the source's name). The format is in vivo, guinea pig (male Hartley). Here is the method:
The assay of this Example measures the in vivo ability of the compounds of the invention to inhibit the bronchospasm induced in guinea pigs by the exogenously administered leukotrienes C4 and/or D4.
This assay is carried out as follows:
Male Hartley strain guinea pigs (350-600 g) are anesthetized with pentobarbital sodium (50 mg/kg, i.p.). The jugular vein is cannulated for injection of drugs and the carotid artery for monitoring blood pressure. The trachea is cannulated for artificial ventilation by a miniature Starling pump and for indirect measurement of respiratory volume changes. The animals are then pretreated with succinylcholine (2 mg/kg i.v.) and indomethacin (10 mg/kg i.v. in trizma 8.3 buffer, 9 minutes prior to leukotriene challenge). Submaximal bronchoconstrictor responses are established in control animals by varying the dose-levels of leukotriene. Intravenous dose-levels for LTC4 range from 0.4 to 0.6 μg/kg and for LTD4 the range is from 0.3 to 0.5 μg/kg. The aerosol bronchoprovocation dose for LTC4 is generated from 1.6 μM solution and for LTD4 from a 2.0 μM solution.
Test drugs (dissolved in a solvent such as propylene glycol, polyethylene glycol 400 or saline) are administered either intraduodenally, by aerosol or perorally at 2 or 10 minutes before induction of bronchospasm by administration of either LTC4 or LTD4 at the predetermined dose-levels. Aerosols of soluble drugs or leukotrienes are produced in-line for 10 seconds only by actuation of an ultrasonic nebulizer (Monaghan). Aerosolized drug dosage is expressed in terms of solution concentration and by a fixed aerosol exposure time (approximately 10 seconds). Control animals receive solvent (2 ml/kg i.d. or appropriate aerosol) in place of drug.
Respiratory volume changes are determined by a calibrated piston whose travel is recorded, via a linear transducer, on a Beckman Dynograph recorder. Maximal bronchoconstrictor volume is determined by clamping off the trachea at the end of the experiment. Overflow volumes at 1, 3 and 5 minutes are obtained from the recorded charts.
Area under the volume overflow curve (AUC) is estimated, using the overflow values at 1, 3 and 5 minutes, and expressed as a percentage of the maximal overflow AUC (equation 1): [formula] Drug effects are reported as percent inhibition of % max AUC values obtained from appropriate control animals (equation 2): [formula]
Student's t-test for unpaired data is used to determine statistical significance (p<0.05). IC50 values can also be determined by inverse prediction from linear regression lines through points between 10 and 90% inhibition.

Assay [4] deals with synthesis of the lipoxygenase product 5-HETE in rat polymorphonuclear leukocytes. The assay is described as follows: Inhibition of 5-HETE synthesis by rat glycogen elicited polymorphonuclear leukocytes. The format is cell-based, rat (female Wistar). Here is the method:
The assay of this Example measures the ability of the compounds of the invention to inhibit the synthesis of 5-HETE by rat glycogen elicited polymorphonuclear leukocytes.
as §1
(§2) Peritoneal PMN are obtained from female Wistar rats (150-250 g) that received an i.p. injection of 6% glycogen (10 ml). After 24 hours, rats are killed by CO2 asphyxiation and peritoneal cells are harvested by peritoneal lavage using Ca^++ and Mg^++ free Hanks' balanced salt solution (HBSS). The peritoneal exudate is centrifuged at 400 g for 10 minutes. After centrifugation, the lavaged fluid is removed and the cell pellet is resuspended in HBSS containing Ca^++ and Mg^++ and 10 mM L-cysteine at a concentration of 2×10^7 cells/ml. To 1 ml portions of cell suspension, test drugs or vehicle are added and incubated at 37° C. for 10 minutes. Following this preincubation, the calcium ionophore (10 μM), A23187, is added together with 0.5 μCi [14 C] arachidonic acid and further incubated for 10 minutes. The reaction is stopped by the addition of ice cold water (3 ml) and acidifying to pH 3.5. […] After chromatography, the areas associated with 5-HETE standard are identified by autoradiography, cut out and quantitated by liquid scintillation.
The compounds of this invention are tested in this assay at a level of 10 μm. […] Some results are expressed as an IC50 value.

Assay [5] concerns synthesis of the cyclooxygenase product PGE2 in rat polymorphonuclear leukocytes. The assay is described as follows: Inhibition of synthesis of the cyclooxygenase oxidation product PGE2 (procedure of Example 5). The format is cell-based, rat (female Wistar). The settings on record: tested at 10 μm. Here is the method:
as §2, with “3.5. Lipoxygenase products are then extracted twice into diethyl ether.” for “3.5.”, “scintillation. […]” for “scintillation.”
In this assay, the procedure of Example 5 is carried out as described. […] After chromatography, the areas associated with the PGE2 standard are identified by autoradiography, cut out and quantitated by liquid scintillation techniques.
The results are calculated as in Example 5.

[6] abbreviates: 25 mg/kg perorally administered.

Read-outs that look alike come from different tables or passages of the source.

The term % Inhibition denotes the relative decrease from the control value, in per cent. The IC50 is the point on the concentration scale where inhibition reaches its midpoint. Lower therefore signals greater potency in that assay.

On to `CC(=O)Oc1ccccc1C(=O)O` [Aspirin, reference compound], for which the ED50 in assay [1] was 145 mg/kg.
Take `CONC(=O)Cc1cccc(OCc2ccc3ccccc3n2)c1` [Example 1, O-methyl-3-[(2-quinolinyl)methoxy]benzeneaceto hydroxamate]: the “% Inhibition at 100 mg/kg (peroral)” value in assay [1] was found to be 50%. For the same compound, the “% Inhibition of Max AUC” value in assay [2] (25 mg/kg intraduodenal) stood at 56.0%; in assay [2] (setting [6]), 82.8%. Further, the ED50 in assay [2] (po, perorally administered) was 2.5 mg/kg; in assay [2] (intraduodenal), 7.3 mg/kg; in assay [3] (po, perorally administered), 5.9 mg/kg; in assay [3] (intraduodenally administered), 1.8 mg/kg. In addition, the “% Inhibition” value worked out at 90.6% in assay [3] (25 mg/kg intraduodenally) and 86.3% in assay [3] (25 mg/kg perorally). Besides, half-maximal inhibition in assay [4] (Leukocyte, rat PMN) (IC50) was put at 10.5 µM.
With `CONC(=O)c1cccc(OCc2ccc3ccccc3n2)c1` [Example 2A, O-methyl-3-[(2-quinolinyl)methoxy]benzoic hydroxyamate], the “% Inhibition at 100 mg/kg (peroral)” value in assay [1] worked out at 32%. For the same compound, the figures for the “% Inhibition of Max AUC” value in assay [2] (25 mg/kg intraduodenal) and in assay [2] (setting [6]) were 76.6% and -1.5%, respectively. Moreover, the “% Inhibition” value in assay [3] (25 mg/kg intraduodenally) was 92.8%; in assay [3] (25 mg/kg perorally) it was 72.4%. Further, the ED50 in assay [3] (po, perorally administered) was determined as 13.1 mg/kg; in assay [3] (intraduodenally administered) it was 3.16 mg/kg.
As to `O=C(NOCc1ccccc1)c1cccc(OCc2ccc3ccccc3n2)c1` [Example 2B, O-benzyl-3-[(2-quinolinyl)methoxy]benzoic hydroxamate], the “% Inhibition at 100 mg/kg (peroral)” value in assay [1] amounted to 42%. Also, the “% Inhibition” value in assay [3] (25 mg/kg intraduodenally) is 69.4%. Further, the “>50% Inhibitory at 10 μm” value in assay [4] (tested at 10 μm) is on record as “+ (those compounds having an inhibition of >50% are designated by a "+")”. In addition, the “>50% Inhibition at 10 μm” value in assay [5] was “+ (those compounds having an inhibition of >50% are designated by a "+")”.
In the case of `O=C(Cc1cccc(OCc2ccc3ccccc3n2)c1)NOCc1ccccc1` [Example 2C, O-benzyl-3-[(2-quinolinyl)methoxy]benzeneaceto hydroxamate], in assay [1], the “% Inhibition at 100 mg/kg (peroral)” value is given as 37%.
In the case of `CONC(=O)Cc1cccc(OCc2nc3ccccc3n2C)c1` [Example 2D, O-methyl-3-[1-methyl(2-benzimidazoyl)methoxy]benzoaceto hydroxamate], in assay [1], the “% Inhibition at 100 mg/kg (peroral)” value is 48%. In assay [5], the “>50% Inhibition at 10 μm” value is listed as “+ (those compounds having an inhibition of >50% are designated by a "+")”.
With `CONC(=O)Cc1cccc(OCc2nc3ccccc3s2)c1` [Example 2E, O-methyl-3-[(2-benzthiazoyl)methoxy]benzoaceto hydroxamate], in assay [1], the “% Inhibition at 100 mg/kg (peroral)” value was determined as 38%.
With `O=C(Cc1cccc(OCc2ccc3ccccc3n2)c1)NO` [Example 3, 3-[(2-Quinolinyl)methoxy]benzeneaceto hydroxamic acid], the “% Inhibition” value in assay [3] (25 mg/kg intraduodenally) was 10%.
Same read-out and setting: the figure for `O=C(NO)c1cccc(OCc2ccc3ccccc3n2)c1` [Example 4A, 3-[(2-quinolinyl)methoxy]benzoic hydroxamic acid] is 32.8%.
As for `COc1ccc2c(c1)c(CC(=O)O)c(C)n2C(=O)c1ccc(Cl)cc1` [Indomethacin, reference compound], the ED50 in assay [1] was found to be 3.7 mg/kg.
